ChEMBL document CHEMBL4270515, “New pyrazolopyridine analogs: Synthesis, antimicrobial, antiquorum-sensing and antitumor screening” (Eur J Med Chem, 2018)
pIC50: −log10 of the molar value. ≈ marks a conversion by molar mass, not a printed value.

Experiments:
[1] = system: Aspergillus fumigatus; assay: Antimicrobial activity against Aspergillus fumigatus 293 after 48 hrs by two-fold serial dilution method; type: functional; conditions: Af293, 48 h
[2] = system: Escherichia coli; assay: Antimicrobial activity against Escherichia coli ATCC 12435 after 24 hrs by two-fold serial dilution method; type: functional; conditions: ATCC 12435, 24 h
[3] = system: HeLa; assay: Cytotoxicity against human HeLa cells assessed as decrease in cell viability after 48 hrs by MTT assay; type: functional, cell-based
[4] = system: MCF7; assay: Cytotoxicity against human MCF7 cells assessed as decrease in cell viability after 48 hrs by MTT assay; type: functional, cell-based; conditions: MCF7, 48 h
[5] = system: Chromobacterium violaceum; assay: Inhibition of N-acyl-homoserinlactone-related quorum sensing system in Chromobacterium violaceum ATCC 12472 assessed as diameter of violacein pigment inhibition after 48 hrs
[6] = system: Pseudomonas aeruginosa; assay: Antimicrobial activity against Pseudomonas aeruginosa PAO1 after 24 hrs by two-fold serial dilution method; type: functional; conditions: PAO1, 24 h
[7] = system: Candida albicans; assay: Antimicrobial activity against Candida albicans after 48 hrs by two-fold serial dilution method; type: functional
[8] = system: Bacillus cereus; assay: Antimicrobial activity against Bacillus cereus UW 85 after 24 hrs by two-fold serial dilution method; type: functional; conditions: UW 85, 24 h
[9] = system: HepG2; assay: Cytotoxicity against human HepG2 cells assessed as decrease in cell viability after 48 hrs by MTT assay; type: functional, cell-based; conditions: HepG2, 48 h
[10] = system: Staphylococcus aureus; assay: Antimicrobial activity against Staphylococcus aureus ATCC 29213 after 24 hrs by two-fold serial dilution method; type: functional; conditions: ATCC 29213, 24 h
[11] = system: Aspergillus flavus; assay: Antimicrobial activity against Aspergillus flavus 3375 after 48 hrs by two-fold serial dilution method; type: functional; conditions: Aspergillus flavus, 3375, 48 h
[12] = system: Ehrlich; assay: Antitumor activity against mouse EAC cells implanted in Swiss albino mouse assessed as effect on tumor volume at 0.5 mg/mouse administered for 9 days (reference value: 9.85 mL); type: functional
[13] = system: Ehrlich; assay: Antitumor activity against mouse EAC cells implanted in Swiss albino mouse assessed as mean survival time at 0.5 mg/mouse administered for 9 days (reference value: 14.5 day); type: functional
[14] = Displacement of methyl green from DNA (unknown origin) incubated in dark for 24 hrs
[15] = system: Mus musculus; assay: Toxicity in Swiss albino mouse implanted with mouse EAC cells assessed as effect on RBC count at 0.5 mg/mouse administered for 9 days (reference value: 3.69 10^6/mm3); type: organism-based; conditions: in vivo, 216 h
[16] = system: WISH; assay: Cytotoxicity against human WISH cells assessed as decrease in cell viability after 48 hrs by MTT assay; type: cell-based
[17] = system: Mus musculus; assay: Toxicity in Swiss albino mouse implanted with mouse EAC cells assessed as effect on WBC count at 0.5 mg/mouse administered for 9 days (reference value: 23.96 10^3/mm3); type: organism-based; conditions: in vivo, 216 h
[18] = system: Ehrlich; assay: Antitumor activity against mouse EAC cells implanted in Swiss albino mouse assessed as increase in life span at 0.5 mg/mouse administered for 9 days relative to control; type: functional
[19] = system: Mus musculus; assay: Toxicity in Swiss albino mouse implanted with mouse EAC cells assessed as effect on hemoglobin content at 0.5 mg/mouse administered for 9 days (reference value: 8.15 g/dl); type: organism-based; conditions: in vivo, 216 h
[20] = system: Ehrlich; assay: Antitumor activity against mouse EAC cells implanted in Swiss albino mouse assessed as effect on viable tumor cell count at 0.5 mg/mouse administered for 9 days by trypan blue staining based method (reference value: 83.20 10^6/ml); type: functional
[21] = system: WI-38; assay: Cytotoxicity against human W138 cells assessed as decrease in cell viability after 48 hrs by MTT assay; type: cell-based; conditions: WI-38, 48 h

| Compound | MIC [1] [µM] | MIC [2] [µM] | pIC50 [3] | pIC50 [4] | inhibition zone (IZ) [5] [mm] | MIC [6] [µM] | MIC [7] [µM] | MIC [8] [µM] | pIC50 [9] | MIC [10] [µM] | MIC [11] [µM] | Activity [12] [mL] | MST [13] [days] | pIC50 [14] | Activity [15] [×10⁶ /mm3] | pIC50 [16] | Activity [17] [×10³ /mm3] | ILS [18] [%] | Activity [19] [g/dL] | Activity [20] [×10⁶ /ml] | other results |
| --- | --- | --- | --- | --- | --- | --- | --- | --- | --- | --- | --- | --- | --- | --- | --- | --- | --- | --- | --- | --- | --- |
| Cc1n[nH]c2c1C(c1ccc(N(C)C)cc1)C(C(=O)N/N=C1/C(=O)Nc3ccccc31)=C(N)N2 (stereo not given) | 2190 (≈ 1000 µg/mL) | 4380 (≈ 2000 µg/mL) | 4.28 | 4.23 | < 2 | 548 (≈ 250 µg/mL) | 2190 (≈ 1000 µg/mL) | 2190 (≈ 1000 µg/mL) | 4.24 | 2190 (≈ 1000 µg/mL) | 2190 (≈ 1000 µg/mL) |  |  |  |  |  |  |  |  |  |  |
| Cc1n[nH]c2c1C(c1ccc(N(C)C)cc1)C(C(=O)n1ncc(C#N)c1N)=C(N)N2 (stereo not given) | 2480 (≈ 1000 µg/mL) |  | 4.22 | 4.20 | < 2 | 620 (≈ 250 µg/mL) | 4960 (≈ 2000 µg/mL) |  | 4.18 |  | 2480 (≈ 1000 µg/mL) |  |  |  |  |  |  |  |  |  |  |
| Cc1n[nH]c2c1C(c1ccc(N(C)C)cc1)C=C(N)N2 (stereo not given) | 3710 (≈ 1000 µg/mL) | 7430 (≈ 2000 µg/mL) | 4.56 | 4.95 | < 2 | 3710 (≈ 1000 µg/mL) | 3710 (≈ 1000 µg/mL) | 3710 (≈ 1000 µg/mL) | 4.69 | 3710 (≈ 1000 µg/mL) | 3710 (≈ 1000 µg/mL) | 4.8 | 31 | 4.25 | 4.53 | 4.67 | 12.69 | 72.2 | 10.95 | 51.17 | pIC50 [21]: 4.74 |
| Cc1n[nH]c2c1C(c1ccc(N(C)C)cc1)C(C(=O)O)=C(N)N2 (stereo not given) | 399 (≈ 125 µg/mL) | 199 (≈ 62.5 µg/mL) | 4.47 | 4.66 | 11 | 199 (≈ 62.5 µg/mL) | 798 (≈ 250 µg/mL) | 99.7 (≈ 31.3 µg/mL) | 4.40 | 99.7 (≈ 31.3 µg/mL) | 399 (≈ 125 µg/mL) |  |  | 4.38 |  |  |  |  |  |  |  |
| Cc1n[nH]c2c1C(c1ccc(N(C)C)cc1)C(C(=O)NN)=C(N)N2 (stereo not given) | 1530 (≈ 500 µg/mL) | 1530 (≈ 500 µg/mL) | 4.29 | 4.37 | 5 | 764 (≈ 250 µg/mL) | 1530 (≈ 500 µg/mL) | 764 (≈ 250 µg/mL) | 4.18 | 764 (≈ 250 µg/mL) | 1530 (≈ 500 µg/mL) |  |  | 4.17 |  |  |  |  |  |  |  |
| Cc1n[nH]c2c1C(c1ccc(N(C)C)cc1)C(C(=O)NNC(N)=S)=C(N)N2 (stereo not given) | 1290 (≈ 500 µg/mL) | 1290 (≈ 500 µg/mL) | 5.20 | 5.28 | < 2 | 647 (≈ 250 µg/mL) | 1290 (≈ 500 µg/mL) | 647 (≈ 250 µg/mL) | 5.20 | 647 (≈ 250 µg/mL) | 1290 (≈ 500 µg/mL) | 2.25 | 46 | 4.44 | 5.59 | 4.31 | 8.52 | 155.5 | 13.4 | 30.94 | pIC50 [21]: 4.27 |
| COc1cccc2c1C(=O)c1c(O)c3c(c(O)c1C2=O)C[C@@](O)(C(=O)CO)C[C@@H]3O[C@H]1C[C@H](N)[C@H](O)[C@H](C)O1 [DOXORUBICIN] |  |  |  |  |  |  |  |  |  |  |  | 1 | 62 | 4.50 | 5.32 | 5.09 | 8.96 | 244.4 | 12.75 | 16.36 |  |
| OC(Cn1cncn1)(Cn1cncn1)c1ccc(F)cc1F [FLUCONAZOLE] |  |  |  |  |  |  | 6530 (≈ 2000 µg/mL) |  |  |  |  |  |  |  |  |  |  |  |  |  |  |
| CC1(C)S[C@@H]2[C@H](NC(=O)[C@H](N)c3ccccc3)C(=O)N2[C@H]1C(=O)O [AMPICILLIN] |  | 44.7 (≈ 15.6 µg/mL) |  |  |  |  |  | 1430 (≈ 500 µg/mL) |  | 716 (≈ 250 µg/mL) |  |  |  |  |  |  |  |  |  |  |  |
| Oc1cc(O)c2c(c1)O[C@H](c1ccc(O)c(O)c1)[C@@H](O)C2 |  |  |  |  | 2 |  |  |  |  |  |  |  |  |  |  |  |  |  |  |  |  |
| Cc1n[nH]c2c1C(c1ccc(N(C)C)cc1)C(C(=O)NNc1cc([N+](=O)[O-])ccc1[N+](=O)[O-])=C(N)N2 (stereo not given) | 1010 (≈ 500 µg/mL) | 1010 (≈ 500 µg/mL) | 5.07 | 4.89 | 2.5 | 507 (≈ 250 µg/mL) | 1010 (≈ 500 µg/mL) | 253 (≈ 125 µg/mL) | 5.06 | 507 (≈ 250 µg/mL) | 1010 (≈ 500 µg/mL) | 2.8 | 42 | 4.47 | 5.24 | 4.29 | 10.32 | 133.3 | 13.1 | 34.73 | pIC50 [21]: 4.26 |
| Cc1n[nH]c2c1C(c1ccc(N(C)C)cc1)C(C(N)=O)=C(N)N2 (stereo not given) | 3200 (≈ 1000 µg/mL) |  | 5.24 | 5.34 | < 2 | 3200 (≈ 1000 µg/mL) | 6400 (≈ 2000 µg/mL) |  | 5.28 |  | 6400 (≈ 2000 µg/mL) | 1.35 | 61 | 4.55 | 5.94 | 4.12 | 8.2 | 238.9 | 14 | 21.46 | pIC50 [21]: 4.16 |
| Cc1n[nH]c2c1C(c1ccc(N(C)C)cc1)C(C(=O)N/N=C/c1ccc(Cl)cc1)=C(N)N2 (stereo not given) | 2220 (≈ 1000 µg/mL) | 556 (≈ 250 µg/mL) | 4.50 | 4.60 | < 2 | 556 (≈ 250 µg/mL) | 1110 (≈ 500 µg/mL) | 556 (≈ 250 µg/mL) | 4.40 | 556 (≈ 250 µg/mL) | 2220 (≈ 1000 µg/mL) |  |  | 4.17 |  |  |  |  |  |  |  |
